According to patent US20170298361A1, “USE OF AGENTS FOR TREATING FAT-RELATED DISORDERS” (Yeda Research and Development Co. Ltd., priority 2014, published 2017):
Entries after “also recorded” stand apart in the source; their conditions may differ. Peptide text beside a SMILES is read from it. * marks the point of attachment. Cbz = O=C(OCc1ccccc1)*

Assays:
PPARγ2 = PPARγ2 accumulation after proteasomal inhibition in c-Abl-depleted 3T3-L1 cells (immunoblotting); format: cell-based, mouse; conditions: c-Abl-depleted 3T3-L1, day 5 of differentiation, 25 μg MG-132, lysed after 5 h
Description: FIGS. 2A-C illustrate that c-Abl prolongs PPARγ2 half-life. (A) Proteasomal inhibition in mid-differentiation results in PPARγ2 accumulation. 3T3-L1 cells expressing shRNA to GFP (control) or c-Abl were induced to differentiate using insulin, dexamethasone and IBMX. On day 5, cells were treated with 25 μg MG-132 and lysed after 5 h. Protein levels were analyzed by immunoblotting. (B) c-Abl stabilizes PPARγ2. HEK293 cells were transfected with plasmids expressing HA-PPARγ2 with or without active c-Abl. Twenty-four hours after transfection, cells were treated with 20 μg/ml cycloheximide for different time points. […] The ratio between immunoprecipitated poly-ubiquitinated PPARγ2 ladder and PPARγ2 protein level from 3 independent experiments was quantified (*** −p<0.005).
The present inventors investigated whether c-Abl might play a role in PPARγ2 accumulation. […] Next, the present inventors measured PPARγ2 protein half-life in the presence or absence of an active form of c-Abl (41-81 c-Abl). […] To investigate the possibility that c-Abl supports PPARγ2 stabilization via inhibition of the poly-ubiquitination of PPARγ2, an octameric tandem fusion of HA-tagged ubiquitin was co-expressed together with Flag-tagged PPARγ2 with or without active c-Abl and the pattern of the poly-ubiquitinated PPARγ2 ladder was analyzed.

CML patients = conditions: Fitter S, et al. (2010); cited from earlier work
[1] = system: mesenchymal stromal cells; conditions: Fitter S, et al. (2008); cited from earlier work
3T3-L1 cells = assay: Adipocyte differentiation of 3T3-L1 cells, oil red O staining; format: cell-based, mouse
Description: FIGS. 1A-E illustrate that c-Abl is required for adipocyte differentiation. (A) c-Abl activity increases during adipogenesis. 3T3-L1 adipoblasts were induced to differentiate with medium containing 5 μg/ml Insulin, 1 μM Dexamethasone and 0.5 mM IBMX. Cells were lysed at the indicated times and protein levels were analyzed by Western blotting. The proteasomal subunit PSMA4 served as a loading control. […] Cells were stained with oil red O and photographed at day 8. (C) c-Abl is required in adipocyte differentiation. 3T3-L1 expressing shRNA against either GFP or c-Abl were induced to differentiate and stained with oil red 0 at day 10. (D) c-Abl is required for expression of PPARγ and its target genes during adipogenesis. 3T3-L1 cells expressing shRNA against either GFP or c-Abl were induced to differentiate as in (A). Cells were lysed at the indicated times and protein levels were analyzed by Western blotting. (E) c-Abl is required for transcription of PPARγ pro-adipogenic target genes but not for transcription of PPARγ itself. At day 4 of differentiation, RNA from 3T3-L1 cells was analyzed for mRNA expression of the indicated genes by quantitative PCR.
FIG. 15 are photographs illustrating differentiation of 3T3-L1 preadipocytes with or without Chk1 inhibitor, UCN-01. […]

[2] = system: PPARγ2 (wild type, Flag-tagged)

## CC(C)C[C@@H](C=O)NC(=O)[C@H](CC(C)C)NC(=O)[C@H](CC(C)C)NC(=O)OCc1ccccc1 [MG-132] (Cbz-Leu-Leu-Leu-aldehyde)
PPARγ2
  PPARγ2 protein level: markedly increased

## Cc1ccc(NC(=O)c2ccc(CN3CCN(C)CC3)cc2)cc1Nc1nccc(-c2cccnc2)n1 [STI-571, imatinib]
CML patients
  fat accumulation: associated with fat accumulation
  insulin sensitivity: improved insulin sensitivity
[1]
  adipocytic differentiation of mesenchymal stromal cells: promote adipocytic differentiation
3T3-L1 cells; 3T3-L1 induced with insulin, dexamethasone, IBMX, STI-571 added 7 hours after differentiation onset until day 5, oil red O at day 8, even at low inhibitor concentration
  adipogenesis (adipocyte differentiation): markedly reduced; also recorded: inhibits adipocyte differentiation

## CN[C@@H]1C[C@H]2O[C@@](C)([C@@H]1OC)n1c3ccccc3c3c4c(c5c6ccccc6n2c5c31)C(=O)N[C@@H]4O [UCN-01]
3T3-L1 cells; with or without Chk1 inhibitor UCN-01 (FIG. 15)
  differentiation of 3T3-L1 preadipocytes: completely inhibit

## c-Abl Δ1-81 (active form of c-Abl)
[2]
  tyrosine phosphorylation of PPARγ2 detected with anti-phosphotyrosine antibody (PY20) after immunoprecipitation: unlike HA-PPARγ2, HA-PPARγ1 was only poorly phosphorylated by c-Abl (FIG. 3D). Similar results were obtained using Flag-PPARγ2
HA-PPARγ1
  tyrosine phosphorylation detected with anti-phosphotyrosine antibody (PY20) after immunoprecipitation using anti-HA beads: HA-PPARγ1 was only poorly phosphorylated by c-Abl
PPARγ2 P12A variant
  tyrosine phosphorylation detected with anti-phosphotyrosine antibody (PY20) after immunoprecipitation using anti-Flag beads: the P12A variant was inefficient in binding to c-Abl and in undergoing phosphorylation by the kinase
